Reference: ChEMBL document CHEMBL1127980, “A convenient synthesis of 2-amino-2-oxazolines and their pharmacological evaluation at cloned human adrenergic receptors” (Bioorg Med Chem Lett, 1994)

These molecules were tested against T1, Alpha-2A adrenergic receptor (Homo sapiens, UniProt P08913) (assay: Binding affinity towards human Alpha-2A adrenergic receptor by the displacement of [3H]rauwolscine).
T1 sequence (P08913 whole entry): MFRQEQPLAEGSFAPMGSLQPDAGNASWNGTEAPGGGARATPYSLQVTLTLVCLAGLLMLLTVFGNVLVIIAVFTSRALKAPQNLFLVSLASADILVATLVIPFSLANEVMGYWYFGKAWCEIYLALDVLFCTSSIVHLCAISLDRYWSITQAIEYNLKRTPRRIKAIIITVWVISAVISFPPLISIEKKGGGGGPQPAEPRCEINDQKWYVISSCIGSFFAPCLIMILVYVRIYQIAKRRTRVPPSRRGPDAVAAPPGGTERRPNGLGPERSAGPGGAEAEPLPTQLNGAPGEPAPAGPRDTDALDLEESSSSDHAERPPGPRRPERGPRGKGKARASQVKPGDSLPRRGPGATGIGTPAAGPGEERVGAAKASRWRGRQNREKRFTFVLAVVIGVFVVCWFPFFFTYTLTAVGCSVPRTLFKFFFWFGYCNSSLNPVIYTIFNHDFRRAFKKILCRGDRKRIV

SMILES | Ki [nM]
c1ccc2c(c1)CCCC2NC1=NCCCO1 (stereo not given) | 25.7
CCC[C@H]1CCCCC1NC1=NCCO1 (stereo not given in full) | 2.95
c1ccc2c(c1)CCCC2NC1=NCCO1 (stereo not given) | 2.34
C1COC(N2CCOCC2)=N1 | 16600

Results, then the molecule that gave them:

Ki [nM] | SMILES
5.37 | C1CCCC(NC2=NCCO2)CC1
182 | C1COC(NC(C2CC2)C2CC2)=N1 [RILMENIDINE]

The molecules below were run against T1, Alpha-2A adrenergic receptor (assay: Agonistic activity towards human Alpha-2A adrenergic receptor was measured as ability to inhibit forskolin-stimulated synthesis of cyclic adenosine monophosphate).
Type: functional

SMILES | EC50 [nM]
c1ccc2c(c1)CCCC2NC1=NCCCO1 (stereo not given) | 229
CCC[C@H]1CCCCC1NC1=NCCO1 (stereo not given in full) | 1.62
c1ccc2c(c1)CCCC2NC1=NCCO1 (stereo not given) | 1.17

Now from value to molecule:

EC50 [nM] | SMILES
38 | C1CCCC(NC2=NCCO2)CC1
275 | C1COC(NC(C2CC2)C2CC2)=N1 [RILMENIDINE]

What follows are molecules tested against T2, Alpha-1D adrenergic receptor (Homo sapiens, UniProt P25100) (assay: Binding affinity towards human Alpha-1A adrenergic receptor by the displacement of [3H]prazosin).
T2 sequence (P25100 whole entry): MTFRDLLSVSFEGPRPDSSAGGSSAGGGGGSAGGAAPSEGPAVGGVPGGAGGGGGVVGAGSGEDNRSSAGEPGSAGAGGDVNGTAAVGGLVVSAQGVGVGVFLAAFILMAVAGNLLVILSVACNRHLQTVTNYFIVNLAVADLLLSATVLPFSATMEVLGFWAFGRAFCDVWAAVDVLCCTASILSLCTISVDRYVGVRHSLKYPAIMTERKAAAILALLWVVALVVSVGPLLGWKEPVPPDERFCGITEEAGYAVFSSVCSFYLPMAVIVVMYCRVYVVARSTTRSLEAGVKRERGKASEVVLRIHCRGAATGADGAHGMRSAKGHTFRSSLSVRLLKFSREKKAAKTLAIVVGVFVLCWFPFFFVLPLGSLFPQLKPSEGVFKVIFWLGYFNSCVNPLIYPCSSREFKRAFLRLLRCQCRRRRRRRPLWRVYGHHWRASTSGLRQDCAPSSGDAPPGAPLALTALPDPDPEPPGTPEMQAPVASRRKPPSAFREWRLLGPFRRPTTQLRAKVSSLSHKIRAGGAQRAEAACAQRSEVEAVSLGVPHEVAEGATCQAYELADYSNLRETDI

SMILES | Ki [nM]
c1ccc2c(c1)CCCC2NC1=NCCCO1 (stereo not given) | 2190
CCC[C@H]1CCCCC1NC1=NCCO1 (stereo not given in full) | 562
c1ccc2c(c1)CCCC2NC1=NCCO1 (stereo not given) | 204
C1COC(N2CCOCC2)=N1 | 120000

Other lines, results leading:

Ki [nM] | SMILES
3800 | C1CCCC(NC2=NCCO2)CC1
8910 | C1COC(NC(C2CC2)C2CC2)=N1 [RILMENIDINE]

These molecules were tested against T3, Alpha-2B adrenergic receptor (Homo sapiens, UniProt P18089) (assay: Agonistic activity towards human Alpha-2B adrenergic receptor was measured as ability to inhibit forskolin-stimulated synthesis of cyclic adenosine monophosphate).
T3 sequence (P18089 whole entry): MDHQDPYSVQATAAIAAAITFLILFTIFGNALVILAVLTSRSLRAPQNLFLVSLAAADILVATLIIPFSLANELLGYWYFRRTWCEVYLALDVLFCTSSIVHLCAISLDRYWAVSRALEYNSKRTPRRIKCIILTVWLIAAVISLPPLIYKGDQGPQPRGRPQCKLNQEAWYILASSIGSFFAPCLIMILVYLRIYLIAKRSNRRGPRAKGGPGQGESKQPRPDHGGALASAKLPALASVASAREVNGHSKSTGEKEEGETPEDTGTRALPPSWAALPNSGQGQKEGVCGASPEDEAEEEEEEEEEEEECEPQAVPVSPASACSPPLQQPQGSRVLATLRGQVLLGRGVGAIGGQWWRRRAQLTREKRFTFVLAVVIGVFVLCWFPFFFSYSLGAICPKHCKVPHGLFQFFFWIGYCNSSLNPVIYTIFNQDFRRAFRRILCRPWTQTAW
Type: functional

SMILES | EC50 [nM]
c1ccc2c(c1)CCCC2NC1=NCCCO1 (stereo not given) | 34.7
CCC[C@H]1CCCCC1NC1=NCCO1 (stereo not given in full) | 9.33
c1ccc2c(c1)CCCC2NC1=NCCO1 (stereo not given) | 3.55

Further lines, results first:

EC50 [nM] | SMILES
214 | C1CCCC(NC2=NCCO2)CC1
724 | C1COC(NC(C2CC2)C2CC2)=N1 [RILMENIDINE]

These molecules were tested against T3, Alpha-2B adrenergic receptor (assay: Binding affinity towards human Alpha-2B adrenergic receptor by the displacement of [3H]rauwolscine).

SMILES | Ki [nM]
c1ccc2c(c1)CCCC2NC1=NCCCO1 (stereo not given) | 25.1
CCC[C@H]1CCCCC1NC1=NCCO1 (stereo not given in full) | 5.89
c1ccc2c(c1)CCCC2NC1=NCCO1 (stereo not given) | 2.14
C1COC(N2CCOCC2)=N1 | 11700

Now from value to molecule:

Ki [nM] | SMILES
9.77 | C1CCCC(NC2=NCCO2)CC1
70.8 | C1COC(NC(C2CC2)C2CC2)=N1 [RILMENIDINE]

Each molecule was assayed against T4, Alpha-1A adrenergic receptor (Homo sapiens, UniProt P35348) (assay: Binding affinity towards human Alpha-1C adrenergic receptor by the displacement of [3H]prazosin).
T4 sequence (P35348 whole entry): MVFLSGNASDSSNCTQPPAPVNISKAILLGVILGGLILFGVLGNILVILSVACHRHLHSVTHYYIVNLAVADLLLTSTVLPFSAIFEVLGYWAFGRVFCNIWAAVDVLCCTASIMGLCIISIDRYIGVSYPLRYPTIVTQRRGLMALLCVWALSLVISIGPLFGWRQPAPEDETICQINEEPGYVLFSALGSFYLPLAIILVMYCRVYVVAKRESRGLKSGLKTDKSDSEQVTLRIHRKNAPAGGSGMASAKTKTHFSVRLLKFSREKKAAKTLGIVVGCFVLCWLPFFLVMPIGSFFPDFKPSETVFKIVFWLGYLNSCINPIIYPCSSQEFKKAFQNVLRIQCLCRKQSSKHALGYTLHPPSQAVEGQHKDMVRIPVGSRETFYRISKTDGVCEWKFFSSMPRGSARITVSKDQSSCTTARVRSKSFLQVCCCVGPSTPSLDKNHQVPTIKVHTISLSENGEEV

SMILES | Ki [nM]
c1ccc2c(c1)CCCC2NC1=NCCCO1 (stereo not given) | 1950
CCC[C@H]1CCCCC1NC1=NCCO1 (stereo not given in full) | 141
c1ccc2c(c1)CCCC2NC1=NCCO1 (stereo not given) | 126
C1COC(N2CCOCC2)=N1 | 107000

The remaining lines, values ahead:

Ki [nM] | SMILES
2000 | C1CCCC(NC2=NCCO2)CC1
6030 | C1COC(NC(C2CC2)C2CC2)=N1 [RILMENIDINE]

These molecules were tested against T5, Alpha-2C adrenergic receptor (Homo sapiens, UniProt P18825) (assay: Agonistic activity towards human Alpha-2C adrenergic receptor was measured as ability to inhibit forskolin-stimulated synthesis of cyclic adenosine monophosphate).
T5 sequence (P18825 whole entry): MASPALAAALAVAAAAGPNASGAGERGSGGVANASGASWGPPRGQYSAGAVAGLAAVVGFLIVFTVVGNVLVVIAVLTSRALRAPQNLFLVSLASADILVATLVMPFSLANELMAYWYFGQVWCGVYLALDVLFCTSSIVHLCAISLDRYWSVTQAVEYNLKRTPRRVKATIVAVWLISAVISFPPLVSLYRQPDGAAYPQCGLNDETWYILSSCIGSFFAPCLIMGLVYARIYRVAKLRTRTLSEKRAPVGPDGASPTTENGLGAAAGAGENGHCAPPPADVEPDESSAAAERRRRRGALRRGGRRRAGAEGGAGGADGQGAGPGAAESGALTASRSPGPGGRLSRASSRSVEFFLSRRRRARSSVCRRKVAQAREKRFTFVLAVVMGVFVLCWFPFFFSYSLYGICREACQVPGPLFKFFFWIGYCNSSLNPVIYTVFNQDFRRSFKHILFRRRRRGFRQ
Type: functional

SMILES | EC50 [nM]
c1ccc2c(c1)CCCC2NC1=NCCCO1 (stereo not given) | 24.5
CCC[C@H]1CCCCC1NC1=NCCO1 (stereo not given in full) | 4.07
c1ccc2c(c1)CCCC2NC1=NCCO1 (stereo not given) | 2.19

Now from value to molecule:

EC50 [nM] | SMILES
77.6 | C1CCCC(NC2=NCCO2)CC1
191 | C1COC(NC(C2CC2)C2CC2)=N1 [RILMENIDINE]

What follows are molecules tested against T5, Alpha-2C adrenergic receptor (assay: Binding affinity towards human Alpha-2C adrenergic receptor by the displacement of [3H]rauwolscine).

SMILES | Ki [nM]
c1ccc2c(c1)CCCC2NC1=NCCCO1 (stereo not given) | 85.1
CCC[C@H]1CCCCC1NC1=NCCO1 (stereo not given in full) | 24.5
c1ccc2c(c1)CCCC2NC1=NCCO1 (stereo not given) | 12
C1COC(N2CCOCC2)=N1 | 16600

Now from value to molecule:

Ki [nM] | SMILES
33.1 | C1CCCC(NC2=NCCO2)CC1
288 | C1COC(NC(C2CC2)C2CC2)=N1 [RILMENIDINE]
